From patent US10961163B2, “Compositions and methods useful for enhancing the microbial conversion of nitrate into ammonium” (The Regents of the University of California, priority 2016, dated 2021)

System: microbial enrichment cultures
Assay: Inhibitory potency (IC50) of inorganic compounds against growth and ammonium production, microbial enrichment with yeast extract
Format: cell-based
Conditions: microbial enrichment with complex carbon source (yeast extract), serial dilutions of inorganic compound; higher ratio favors ammonium production

copper (II) chloride dihydrate
NH4^+ IC50/growth IC50 ratio: 0.1069
